Holding throughout (assay type): biochemical
Experiment [1] has as its target T1, recombinant human VAP-1 (Homo sapiens, UniProt Q16853).
T1 construct: purchased R&D systems
T1 sequence (Q16853 1-763): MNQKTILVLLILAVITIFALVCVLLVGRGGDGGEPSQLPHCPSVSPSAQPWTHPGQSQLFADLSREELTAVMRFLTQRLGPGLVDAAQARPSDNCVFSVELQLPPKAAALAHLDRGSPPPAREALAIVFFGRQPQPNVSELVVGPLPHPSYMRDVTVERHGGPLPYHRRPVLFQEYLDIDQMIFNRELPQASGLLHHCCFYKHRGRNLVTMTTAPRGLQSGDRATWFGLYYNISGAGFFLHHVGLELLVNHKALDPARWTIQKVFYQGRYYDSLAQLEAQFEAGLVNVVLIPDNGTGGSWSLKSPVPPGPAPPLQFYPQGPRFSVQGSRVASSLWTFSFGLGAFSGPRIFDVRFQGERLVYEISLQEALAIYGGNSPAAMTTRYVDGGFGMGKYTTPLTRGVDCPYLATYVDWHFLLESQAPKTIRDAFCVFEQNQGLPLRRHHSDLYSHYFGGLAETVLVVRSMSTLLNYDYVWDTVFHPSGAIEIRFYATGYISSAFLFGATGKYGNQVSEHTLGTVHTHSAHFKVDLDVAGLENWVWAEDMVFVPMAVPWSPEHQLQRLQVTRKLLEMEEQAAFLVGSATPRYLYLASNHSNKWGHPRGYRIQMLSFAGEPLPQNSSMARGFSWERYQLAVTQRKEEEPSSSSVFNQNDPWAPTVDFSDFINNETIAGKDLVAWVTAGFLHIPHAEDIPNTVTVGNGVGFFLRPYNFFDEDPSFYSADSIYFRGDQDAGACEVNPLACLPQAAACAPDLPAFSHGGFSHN
The experiment in a line: Activity evaluation on recombinant human VAP-1 (Amplex Red/HRP-coupled hydrogen peroxide assay, benzylamine substrate). As to conditions: read-out: Inhibitory Activity (IC50, nM) human VAP-1. The procedure, abridged: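 Hydrogen peroxide from benzylamine (1 mM) oxidation by human recombinant VAP-1 detected via HRP-coupled Amplex Red (200 uM) fluorescence, kinetic over 1–2 h. Enzyme and compound preincubated 30 min at 37 °C, pH 7.4 phosphate; 8-point dose response, signal-rate decrease versus DMSO control fitted to four-parameter logistic for IC50.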

For experiment [2], the target named is T2, recombinant human MAO-A (monoamine oxidase-A) (Homo sapiens, UniProt P21397).
T2 construct: purchased Sigma-Aldrich
T2 sequence (P21397 1-527): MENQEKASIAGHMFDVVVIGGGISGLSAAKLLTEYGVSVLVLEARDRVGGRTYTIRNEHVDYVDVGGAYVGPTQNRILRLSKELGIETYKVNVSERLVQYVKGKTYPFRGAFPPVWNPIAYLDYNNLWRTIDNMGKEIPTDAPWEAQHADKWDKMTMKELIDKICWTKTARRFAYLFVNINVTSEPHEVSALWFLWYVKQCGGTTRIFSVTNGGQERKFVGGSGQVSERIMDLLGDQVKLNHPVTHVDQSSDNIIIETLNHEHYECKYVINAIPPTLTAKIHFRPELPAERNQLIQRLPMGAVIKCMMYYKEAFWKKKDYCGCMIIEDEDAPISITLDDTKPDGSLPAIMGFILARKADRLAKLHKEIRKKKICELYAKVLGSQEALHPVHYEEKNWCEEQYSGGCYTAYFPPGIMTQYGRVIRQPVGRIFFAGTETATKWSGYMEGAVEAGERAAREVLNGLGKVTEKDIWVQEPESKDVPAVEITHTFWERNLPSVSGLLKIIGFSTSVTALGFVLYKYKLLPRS
The experiment is described as follows: Activity evaluation on recombinant human MAO-A (Amplex Red/HRP-coupled assay, 0.5 mM tyramine substrate). Conditions: read-out: Inhibitory Activity (IC50, nM) MAO-A. The procedure, abridged:
(§1)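 Using an HRP-coupled Amplex Red readout (544/590 nm, kinetic over 1–2 h), IC50 values were fitted by 4-parameter logistic model to percent decrease in signal rate against DMSO control. Compounds (1:3 dilutions, 8 points, <1% DMSO) sat 30 min at 37 °C with enzyme in pH 7.4 phosphate buffer before substrate, 200 uM Amplex Red and HRP were added.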

Experiment [3] concerns the target T3, recombinant human MAO-B (monoamine oxidase-B) (Homo sapiens, UniProt P27338).
T3 construct: purchased Sigma-Aldrich
T3 sequence (P27338 1-520): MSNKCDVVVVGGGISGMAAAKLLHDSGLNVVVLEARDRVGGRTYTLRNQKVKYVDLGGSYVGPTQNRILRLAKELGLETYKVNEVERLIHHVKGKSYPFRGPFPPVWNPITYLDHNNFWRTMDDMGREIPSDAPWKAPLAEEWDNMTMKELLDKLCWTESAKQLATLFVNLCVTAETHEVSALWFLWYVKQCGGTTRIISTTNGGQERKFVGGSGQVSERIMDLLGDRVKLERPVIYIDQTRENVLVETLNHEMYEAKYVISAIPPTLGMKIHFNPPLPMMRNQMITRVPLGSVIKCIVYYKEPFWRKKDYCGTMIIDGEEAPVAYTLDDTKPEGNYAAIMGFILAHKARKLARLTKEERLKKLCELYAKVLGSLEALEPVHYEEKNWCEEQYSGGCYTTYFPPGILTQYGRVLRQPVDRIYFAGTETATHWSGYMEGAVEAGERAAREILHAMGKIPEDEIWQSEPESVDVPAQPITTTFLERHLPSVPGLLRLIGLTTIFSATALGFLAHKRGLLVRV
The experiment in a line: Activity evaluation on recombinant human MAO-B (Amplex Red/HRP-coupled assay, 1 mM benzylamine substrate). As to conditions: read-out: Inhibitory Activity (IC50, nM) MAO-B. In outline: as §1

Experiment [4] concerns the target T4, recombinant human DAO (diamine oxidase) (Homo sapiens, UniProt P19801).
T4 construct: purchased R&D systems
T4 sequence (P19801 20-751): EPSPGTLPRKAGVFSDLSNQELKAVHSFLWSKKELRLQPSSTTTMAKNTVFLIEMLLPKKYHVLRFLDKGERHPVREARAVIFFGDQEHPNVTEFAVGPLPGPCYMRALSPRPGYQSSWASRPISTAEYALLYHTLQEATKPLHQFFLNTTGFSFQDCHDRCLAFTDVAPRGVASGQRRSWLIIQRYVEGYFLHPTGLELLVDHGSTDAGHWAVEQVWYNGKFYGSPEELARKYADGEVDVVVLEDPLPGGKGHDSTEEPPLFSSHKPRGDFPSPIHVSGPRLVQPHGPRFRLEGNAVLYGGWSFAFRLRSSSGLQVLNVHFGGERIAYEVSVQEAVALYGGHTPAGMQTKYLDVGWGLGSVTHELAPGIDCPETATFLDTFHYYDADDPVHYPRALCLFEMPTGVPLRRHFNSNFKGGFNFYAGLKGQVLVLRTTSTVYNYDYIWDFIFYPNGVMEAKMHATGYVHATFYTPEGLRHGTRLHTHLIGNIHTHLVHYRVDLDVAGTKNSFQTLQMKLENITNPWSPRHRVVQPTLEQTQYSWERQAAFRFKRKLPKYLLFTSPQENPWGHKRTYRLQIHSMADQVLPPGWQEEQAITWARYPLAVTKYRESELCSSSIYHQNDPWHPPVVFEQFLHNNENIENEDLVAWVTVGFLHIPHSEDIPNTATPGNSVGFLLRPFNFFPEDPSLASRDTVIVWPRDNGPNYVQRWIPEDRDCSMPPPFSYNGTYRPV
The experiment in a line: Activity evaluation on recombinant human DAO (Amplex Red/HRP-coupled assay, 1 mM putrescine substrate). Conditions: read-out: Inhibitory Activity (IC50, nM) DAO. The procedure, abridged: as §1

Where [5] appears, read: recombinant human VAP-1, 30 min preincubation at 37° C., 1 mM benzylamine.
[6] abbreviates: recombinant human VAP-1, benzylamine substrate.

Structures can show the parent of a compound that is named as a salt. Where two headings read alike, the source gives them in different places.

With `NCC(Cn1ncn(-c2ccc(-c3ccc(C(F)(F)F)nc3)cc2F)c1=O)=C(F)F` [Example 33, 2-[2-(aminomethyl)-3,3-difluoro-allyl]-4-[2-fluoro-4-[6-(trifluoromethyl)-3-pyridyl]phenyl]-1,2,4-triazol-3-one Trifluoroacetate], the IC50 is 0.3 nM in experiment [1] (setting [5]), 11000 nM in experiment [2] (0.5 mM tyramine), 190 nM in experiment [3] (1 mM benzylamine) and 17 nM in experiment [4] (1 mM putrescine).

For `CN1C(=O)CCc2cc(-c3cccc(Cn4cnn(CC(CN)=C(F)F)c4=O)c3)ccc21` [Example 276, 6-[3-[[1-[2-(aminomethyl)-3,3-difluoro-allyl]-5-oxo-1,2,4-triazol-4-yl]methyl]phenyl]-1-methyl-3,4-dihydroquinolin-2-one Trifluoroacetate], the IC50 in experiment [1] (setting [6]) was 0.5 nM; in experiment [2] (0.5 mM tyramine substrate), > 100000 nM; in experiment [3] (1 mM benzylamine substrate) it was 2250 nM; in experiment [4] (1 mM putrescine substrate), 3080 nM.

With `NCC(Cn1ncn(-c2ccc(-c3ccc(N4CCNCC4)cc3)c(F)c2)c1=O)=C(F)F` [Example 25, 2-[2-(aminomethyl)-3,3-difluoro-allyl]-4-[3-fluoro-4-(4-piperazin-1-ylphenyl)phenyl]-1,2,4-triazol-3-one Ditrifluoroacetate], the IC50 in experiment [1] (setting [5]) was 1.7 nM; in experiment [2] (0.5 mM tyramine), 6280 nM; in experiment [3] (1 mM benzylamine), > 10000 nM; in experiment [4] (1 mM putrescine), 1300 nM.

As to `NCC(Cn1ncn(Cc2ccc(-c3cnn(CC4CC4)c3)s2)c1=O)=C(F)F` [Example 295, 2-[2-(aminomethyl)-3,3-difluoro-allyl]-4-[[5-[1-(cyclopropylmethyl)pyrazol-4-yl]-2-thienyl]methyl]-1,2,4-triazol-3-one Trifluoroacetate], the half-inhibitory concentration (IC50) is 0.3 nM in experiment [1] (setting [6]), > 100000 nM in experiment [2] (0.5 mM tyramine substrate), > 100000 nM in experiment [3] (1 mM benzylamine substrate) and > 100000 nM in experiment [4] (1 mM putrescine substrate).

As to `CCn1cc(-c2cnc(-n3cnn(CC(CN)=C(F)F)c3=O)c(C)c2)cn1` [Example 75, 2-[2-(aminomethyl)-3,3-difluoro-allyl]-4-[5-(1-ethylpyrazol-4-yl)-3-methyl-2-pyridyl]-1,2,4-triazol-3-one Trifluoroacetate], the IC50 was 0.7 nM in experiment [1] (setting [5]), > 100000 nM in experiment [2] (0.5 mM tyramine), > 100000 nM in experiment [3] (1 mM benzylamine) and 20000 nM in experiment [4] (1 mM putrescine).

Turning to `CS(=O)(=O)c1ccc(-c2ccc(-n3cnn(CC(CN)=C(F)F)c3=O)cc2F)cc1` [Example 24, 2-[2-(aminomethyl)-3,3-difluoro-allyl]-4-[3-fluoro-4-(4-methylsulfonylphenyl)phenyl]-1,2,4-triazol-3-one Trifluoroacetate], the IC50 in experiment [1] (setting [5]) is 2.7 nM; in experiment [2] (0.5 mM tyramine) it was > 100000 nM; in experiment [3] (1 mM benzylamine), 3300 nM; in experiment [4] (1 mM putrescine) it was 600 nM.

For the molecule `NCC(Cn1ncn(Cc2ccc(-c3ccc4c(c3)NC(=O)OC4)s2)c1=O)=C(F)F` [Example 142, 7-[5-[[1-[2-(aminomethyl)-3,3-difluoro-allyl]-5-oxo-1,2,4-triazol-4-yl]methyl]-2-thienyl]-1,4-dihydro-3,1-benzoxazin-2-one Trifluoroacetate], the IC50 in experiment [1] (setting [5]) was 0.2 nM; in experiment [2] (0.5 mM tyramine), > 100000 nM; in experiment [3] (1 mM benzylamine), 32000 nM; in experiment [4] (1 mM putrescine), 16000 nM.

With `CC(C)n1cc(-c2ccc(Cn3cnn(CC(CN)=C(F)F)c3=O)s2)ccc1=O` [Example 123, 5-[5-[[1-[2-(aminomethyl)-3,3-difluoro-allyl]-5-oxo-1,2,4-triazol-4-yl]methyl]-2-thienyl]-1-isopropyl-pyridin-2-one Trifluoroacetate], the IC50 in experiment [1] (setting [5]) was 0.9 nM; in experiment [2] (0.5 mM tyramine), > 100000 nM; in experiment [3] (1 mM benzylamine) it was 56000 nM; in experiment [4] (1 mM putrescine), 59000 nM.

`NCC(Cn1ncn(Cc2ccc(-c3ccc4c(c3)OCO4)cc2)c1=O)=C(F)F` [Example 268, 2-[2-(aminomethyl)-3,3-difluoro-allyl]-4-[[4-(1,3-benzodioxol-5-yl)phenyl]methyl]-1,2,4-triazol-3-one Trifluoroacetate]: the concentration for half-maximal inhibition (IC50) in experiment [1] (setting [6]) was 2.1 nM; in experiment [2] (0.5 mM tyramine substrate), > 100000 nM; in experiment [3] (1 mM benzylamine substrate), 1870 nM; in experiment [4] (1 mM putrescine substrate), > 100000 nM.

For `NCC(Cn1ncn(-c2cc(Br)ccn2)c1=O)=C(F)F` [Example 9, 2-[2-(aminomethyl)-3,3-difluoro-allyl]-4-(4-bromo-2-pyridyl)-1,2,4-triazol-3-one Trifluoroacetate], the IC50 is 3.5 nM in experiment [1] (setting [5]), > 100000 nM in experiment [2] (0.5 mM tyramine), > 100000 nM in experiment [3] (1 mM benzylamine) and 7100 nM in experiment [4] (1 mM putrescine).

Turning to `NCC(Cn1ncn(Cc2ccc(-c3cccc(-c4nc[nH]n4)c3)s2)c1=O)=C(F)F` [Example 185, 2-[2-(aminomethyl)-3,3-difluoro-allyl]-4-[[5-[3-(1H-1,2,4-triazol-3-yl)phenyl]-2-thienyl]methyl]-1,2,4-triazol-3-one Trifluoroacetate], the IC50 in experiment [1] (setting [6]) was 1.3 nM; in experiment [2] (0.5 mM tyramine substrate), > 100000 nM; in experiment [3] (1 mM benzylamine substrate), 28000 nM; in experiment [4] (1 mM putrescine substrate), > 100000 nM.

Usually IC50 stands for the midpoint of a concentration-inhibition curve.

The values are drawn from patent US11168073B2, “3,3-difluoroallylamines or salts thereof and pharmaceutical compositions comprising the same” (YUHAN CORPORATION, priority 2018, dated 2021).
